“And” between values parts separate entries of the source, which are not always exact repeats. Equal values may be shown once.

For one assay, the target named is T1, CaV3.2 (Homo sapiens, UniProt O95180).
T1 construct: expressed in transfected cells; host or cells: HEK293
Put plainly: Tl+-flux assay in HEK-293 cells, CaV3.2. The class given is cell-based. The conditions noted are these: HEK293; 10 µM test compound; relative to control bepridil; read-out: Percent Inhibition ± SEM, CaV3.2. The source says: (§1) Having executed our plan to prepare analogs across the identified regions of the chemotype (Figure 2), we identified two analogs for further profiling and evaluation. […] Desiring to add a second compound with some measure of structural differences, we also chose another submicromolar SLACK inhibitor 66 (VU0936154). Whereas 40 contains an ether linker and a halogenated phenyl group in the eastern region, […] contains an N-methyl linker and a phenyl group with a more polar cyano substituent. We first screened these analogs at 10 µM versus our in-house panel of ion channel targets using Tl^+-flux assays in HEK-293 cells expressing the human target of interest. […] Included in this set are Slo family members SLICK and two isoforms of Maxi-K, as well as several different K^+, Na^+, and Ca^2+ channels (Table 6). […] Of note was the excellent selectivity versus the broader panel of targets for both compounds, including versus the hERG channel.
(§2) Stably transfected monoclonal HEK293 cell lines expressing SLICK, Maxi-K α1/β3, Maxi-K α1/β4, CaV3.2, GIRK 1/2, KV2.1, KV7.2, NaV1.7, and TASK-1 were generated as previously described. […]
(§3) The Tl^+ flux assays were conducted as previously described, with modifications optimized for individual cell lines as described below. […] Cell plates were then loaded onto a Panoptic kinetic imaging plate reader (WaveFront Biosciences, Franklin, TN, USA). […]

The next assay deals with T2, SLICK (Homo sapiens, UniProt Q6UVM3).
T2 construct: expressed in transfected cells; host or cells: HEK293
The experiment in a line: Tl+-flux assay in HEK-293 cells, SLICK. The assay is classed as cell-based. Conditions: 10 µM test compound.
Description: as §1, §2, §3

T2 sequence (Q6UVM3 whole entry): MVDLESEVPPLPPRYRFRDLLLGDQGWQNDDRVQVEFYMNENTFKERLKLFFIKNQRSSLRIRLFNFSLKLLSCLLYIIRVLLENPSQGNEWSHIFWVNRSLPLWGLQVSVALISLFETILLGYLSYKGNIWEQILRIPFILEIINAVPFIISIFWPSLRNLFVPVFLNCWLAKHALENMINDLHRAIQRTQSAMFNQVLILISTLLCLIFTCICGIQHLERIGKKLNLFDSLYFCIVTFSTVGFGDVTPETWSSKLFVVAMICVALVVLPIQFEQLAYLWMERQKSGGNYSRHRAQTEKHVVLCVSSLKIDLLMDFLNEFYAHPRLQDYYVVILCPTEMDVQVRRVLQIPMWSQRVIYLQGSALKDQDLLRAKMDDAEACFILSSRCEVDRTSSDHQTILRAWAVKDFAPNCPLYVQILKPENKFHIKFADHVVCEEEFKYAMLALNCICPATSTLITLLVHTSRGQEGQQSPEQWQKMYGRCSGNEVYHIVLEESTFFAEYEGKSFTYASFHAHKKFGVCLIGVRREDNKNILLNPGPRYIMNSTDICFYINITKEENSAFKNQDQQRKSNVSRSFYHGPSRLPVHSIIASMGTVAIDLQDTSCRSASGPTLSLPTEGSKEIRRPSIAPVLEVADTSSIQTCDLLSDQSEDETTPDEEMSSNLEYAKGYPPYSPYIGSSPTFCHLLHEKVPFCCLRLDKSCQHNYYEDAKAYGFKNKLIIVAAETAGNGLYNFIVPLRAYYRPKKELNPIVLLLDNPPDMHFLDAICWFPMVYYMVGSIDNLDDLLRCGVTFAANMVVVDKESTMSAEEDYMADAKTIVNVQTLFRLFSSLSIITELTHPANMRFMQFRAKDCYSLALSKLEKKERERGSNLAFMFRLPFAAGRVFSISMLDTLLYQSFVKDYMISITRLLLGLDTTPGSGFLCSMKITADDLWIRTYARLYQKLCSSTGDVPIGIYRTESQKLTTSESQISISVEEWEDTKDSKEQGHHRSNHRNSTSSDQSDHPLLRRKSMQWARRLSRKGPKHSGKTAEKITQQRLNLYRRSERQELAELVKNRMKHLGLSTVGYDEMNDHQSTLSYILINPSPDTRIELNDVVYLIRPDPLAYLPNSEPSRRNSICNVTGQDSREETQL
T1 sequence (O95180 whole entry): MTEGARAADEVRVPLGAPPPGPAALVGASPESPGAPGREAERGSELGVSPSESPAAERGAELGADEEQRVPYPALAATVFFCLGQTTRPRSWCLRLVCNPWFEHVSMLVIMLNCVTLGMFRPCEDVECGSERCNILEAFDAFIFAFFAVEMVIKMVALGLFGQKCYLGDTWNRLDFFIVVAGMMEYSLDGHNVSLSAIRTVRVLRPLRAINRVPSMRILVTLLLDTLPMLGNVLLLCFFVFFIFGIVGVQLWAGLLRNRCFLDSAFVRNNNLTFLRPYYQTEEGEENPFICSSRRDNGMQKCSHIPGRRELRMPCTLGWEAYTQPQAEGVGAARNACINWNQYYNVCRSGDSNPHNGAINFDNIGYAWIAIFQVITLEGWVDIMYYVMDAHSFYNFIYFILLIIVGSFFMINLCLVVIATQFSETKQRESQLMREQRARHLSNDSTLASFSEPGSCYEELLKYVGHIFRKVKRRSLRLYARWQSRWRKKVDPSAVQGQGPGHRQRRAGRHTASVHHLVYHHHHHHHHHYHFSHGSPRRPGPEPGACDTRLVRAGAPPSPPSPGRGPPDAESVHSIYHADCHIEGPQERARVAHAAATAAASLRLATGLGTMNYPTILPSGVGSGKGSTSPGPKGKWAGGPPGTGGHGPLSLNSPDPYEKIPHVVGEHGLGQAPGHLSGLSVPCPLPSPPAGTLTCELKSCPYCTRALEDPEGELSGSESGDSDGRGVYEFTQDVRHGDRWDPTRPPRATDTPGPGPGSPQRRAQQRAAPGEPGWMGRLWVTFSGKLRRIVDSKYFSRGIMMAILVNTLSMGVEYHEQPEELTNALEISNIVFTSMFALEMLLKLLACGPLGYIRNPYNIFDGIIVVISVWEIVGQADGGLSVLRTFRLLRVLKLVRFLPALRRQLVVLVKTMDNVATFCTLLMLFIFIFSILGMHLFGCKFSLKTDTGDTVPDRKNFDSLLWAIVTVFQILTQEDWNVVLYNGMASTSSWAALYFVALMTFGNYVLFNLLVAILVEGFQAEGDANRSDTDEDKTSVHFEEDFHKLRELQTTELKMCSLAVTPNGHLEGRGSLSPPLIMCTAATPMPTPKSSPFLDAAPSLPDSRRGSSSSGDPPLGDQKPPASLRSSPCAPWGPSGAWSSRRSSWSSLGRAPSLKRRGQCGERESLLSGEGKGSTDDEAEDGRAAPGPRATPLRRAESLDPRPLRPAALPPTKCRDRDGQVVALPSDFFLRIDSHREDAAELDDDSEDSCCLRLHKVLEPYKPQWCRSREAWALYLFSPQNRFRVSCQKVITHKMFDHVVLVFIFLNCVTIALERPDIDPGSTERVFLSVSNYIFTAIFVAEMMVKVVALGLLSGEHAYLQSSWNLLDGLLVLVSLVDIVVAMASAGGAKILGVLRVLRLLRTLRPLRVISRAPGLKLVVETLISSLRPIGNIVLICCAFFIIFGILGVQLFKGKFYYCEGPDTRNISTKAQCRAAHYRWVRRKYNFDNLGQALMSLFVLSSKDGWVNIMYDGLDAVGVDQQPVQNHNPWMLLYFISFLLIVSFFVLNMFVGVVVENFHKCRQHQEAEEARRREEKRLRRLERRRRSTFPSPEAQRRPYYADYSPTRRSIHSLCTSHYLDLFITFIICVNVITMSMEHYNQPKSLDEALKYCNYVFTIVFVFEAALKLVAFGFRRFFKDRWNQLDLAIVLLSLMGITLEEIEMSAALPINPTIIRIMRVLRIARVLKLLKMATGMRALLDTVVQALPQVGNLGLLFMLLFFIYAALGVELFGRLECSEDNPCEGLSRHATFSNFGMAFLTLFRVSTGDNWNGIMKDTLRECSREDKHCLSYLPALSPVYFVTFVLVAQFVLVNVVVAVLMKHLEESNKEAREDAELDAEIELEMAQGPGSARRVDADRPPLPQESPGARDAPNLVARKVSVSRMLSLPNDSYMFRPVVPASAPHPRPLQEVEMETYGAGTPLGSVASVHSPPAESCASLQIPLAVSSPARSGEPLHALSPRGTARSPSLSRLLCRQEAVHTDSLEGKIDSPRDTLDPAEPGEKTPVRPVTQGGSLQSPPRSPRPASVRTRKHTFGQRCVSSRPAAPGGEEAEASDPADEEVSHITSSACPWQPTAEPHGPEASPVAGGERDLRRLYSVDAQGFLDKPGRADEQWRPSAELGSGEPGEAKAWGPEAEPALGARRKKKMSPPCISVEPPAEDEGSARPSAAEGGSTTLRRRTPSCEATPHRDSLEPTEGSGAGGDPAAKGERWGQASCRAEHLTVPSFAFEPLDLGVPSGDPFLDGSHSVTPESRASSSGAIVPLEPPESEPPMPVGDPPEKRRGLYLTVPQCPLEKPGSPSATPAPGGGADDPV

For the molecule `CC(C)(Oc1ccc(Cl)cc1)C(=O)Nc1cnc(Oc2c(F)cccc2F)nc1` [Analog 40], the inhibition at 10 µM at CaV3.2 came to 10 ± 0.82%. Besides, on SLICK (activator, relative to control acetazolamide), the “Percent activation ± SEM, SLICK” value was 36% and 36 ± 8.8 (activator) ^3%.

Take `CN(c1ccc(C#N)cc1)c1ncc(NC(=O)C(C)(C)Oc2ccc(Cl)cc2)cn1` [Analog 66]: the inhibition at 10 µM at CaV3.2 came out at 32 ± 2.4%; at SLICK (HEK293, relative to control SKF96365, read-out: Percent Inhibition ± SEM, SLICK) it was 16 ± 1.4%.

Values taken from paper PMC11643494, “Structure–Activity Relationship Studies in a Series of 2-Aryloxy-N-(pyrimidin-5-yl)acetamide Inhibitors of SLACK Potassium Channels” (Molecules, 2024).
